For this experiment, the system named is Hartley-type male guinea pigs. As to the kind of experiment: Guinea Pig Homogeneous Skin Passive Anaphylaxis Assay (PCA reaction). In kind it is in vivo, guinea pig (Hartley-type). The settings on record: 10 mg/kg oral, 48 h after sensitization; for inhibition in vivo at 10 mg/kg: Cavia porcellus, read-out: Allergic reaction inhibitory index (%). How it is done: In order to confirm the anti-allergic action of the compounds according to the present invention, as an anti-allergic action confirmation assay, the widely used Guinea Pig Homogeneous Skin Passive Anaphylaxis Assay (PCA Reaction Assay; Passive Cutaneous Anaphylaxis Reaction Assay) was carried out. The assay method used will be explained in the following.
Assay method: Hartley-type male guinea pigs (body weight: 250~300 g) were sensitized by the following procedure; a mixture of 2 μg of egg albumin (OVA) and 5 μg of aluminium hydroxide gel was administered intraperitoneally 3 times every 2 weeks, and the anti-OVA blood serum was manufactured.
The anti-blood serum obtained was then diluted 120 times using physiological saline solution, and then to groups each containing 6 shaved guinea pigs, was injected at a quantity of 0.05 ml respectively, into two positions in the back portion, inside the skin of each animal.
After the 48th hour of sensitization, 10 mg/kg of the test substance to be tested was orally administered, following which a mixture of 2 mg OVA and 5 mg of Evans Blue was administered by intraveneous injection into the hind leg, triggering the anaphylaxis reaction. As the positive control, Tranilast, a well known anti-allergic agent, was used, and in the same manner as the substances to be tested, 100 mg/kg of it was orally administered after the 48th hour of sensitization.
30 minutes after triggering the reaction, the animals were bled to death under ether anesthesia, and their back portion skins were peeled off. The long and short diameters of pigment leakage spots on the interior surface of the skins were measured, and the product of these (mm^2) were entered into formula 1 as "pigment leakage amount", from which the allergic reaction inhibitory index wins calculated. [formula]
I: Allergic reaction inhibitory index (%)
A: Pigment leakage amount of solvent control group
B: Pigment leakage amount of test substance group
C: Pigment leakage amount of […]

Consider `COc1cccc2c(OC(C)=O)c(OC(C)=O)c(=O)oc12` [Compound 113, 3,4-(diacetoxy)-8-(methoxy)-2H-1-benzopyran-2-one], for which the “Allergic reaction inhibitory index (%)” value stood at 30%. As for `CC(C)=CCC/C(C)=C/COc1c(OC(C)C)c2c(OC(C)C)cccc2oc1=O` [Compound 221, 3-(geranyloxy)-4,5-(diisopropoxy)-2H-1-benzopyran-2-one], the inhibition in vivo at 10 mg/kg was 33%. Still for that read-out and setting: in the case of `CC(C)Oc1c(O)c2c(O)cccc2oc1=O` [Compound 182, 3-(isopropoxy)-4,5-(dihydroxy)-2H-1-benzopyran-2-one] it was 31%.

On to `CCCCCCCCCCOc1ccc2c(O)c(O)c(=O)oc2c1` [Compound 59, 3,4-(dihydroxy)-7-(decyloxy)-2H-1-benzopyran-2-one], for which the inhibition in vivo at 10 mg/kg was determined as 47%. As to `CC(C)Oc1ccc2c(O)c(O)c(=O)oc2c1` [Compound 45, 3,4-dihydroxy-7-(isopropoxy)-2H-1-benzopyran-2-one], the inhibition in vivo at 10 mg/kg was 58%. Same read-out and setting: in the case of `CC(=O)Oc1c(O)c(=O)oc2cc(OC(C)C)ccc12` [Compound 46, 3-hydroxy-4-(acetoxy)-7-(isopropoxy)-2H-1-benzopyran-2-one] it was 34%; in that of `COc1ccc2c(OC)c(O)c(=O)oc2c1` [Compound 33, 3-hydroxy-4,7-(dimethoxy)-2H-1-benzopyran-2-one], 33%. The same measure, in the same setting: in the case of `CCCCCCCCCCOc1cccc2oc(=O)c(OC/C=C(\C)CCC=C(C)C)c(O)c12` [Compound 237, 3-(geranyloxy)-4-hydroxy-5-(decyloxy)-2H-1-benzopyran-2-one] it was 34%. On to “3-(methoxy)-4-(decyloxy)-8-hydroxy-2H-1-benzopyran-2-one [Compound 99]”, for which the “Allergic reaction inhibitory index (%)” value came out at 33%. Regarding `CCCCCCCCCCOc1cccc2oc(=O)c(O)c(OC(C)=O)c12` [Compound 231, 3-hydroxy-4-(acetoxy)-5-(decyloxy)-2H-1-benzopyran-2-one], the inhibition in vivo at 10 mg/kg is 31%.

As for `COc1c(OC/C=C(\C)CCC=C(C)C)c2cccc(OC(C)C)c2oc1=O` [Compound 141, 3-(methoxy)-4-(geranyloxy)-8-(isopropoxy)-2H-1-benzopyran-2-one], the inhibition in vivo at 10 mg/kg came out at 32%. With `CC(=O)Oc1c(O)c2cc(O)ccc2oc1=O` [Compound 264, 3-(acetoxy)-4,6-(dihydroxy)-2H-1-benzopyran-2-one], the inhibition in vivo at 10 mg/kg is 36%. With `CCCCCCCCCCOc1cccc2c(OC)c(OC/C=C(\C)CCC=C(C)C)c(=O)oc12` [Compound 155, 3-(geranyloxy)-4-(methoxy)-8-(decyloxy)-2H-1-benzopyran-2-one], the inhibition in vivo at 10 mg/kg was 30%. Still for that read-out and setting: in the case of `CC(C)=CCC/C(C)=C/COc1cccc2oc(=O)c(OC(C)C)c(OC/C=C(\C)CCC=C(C)C)c12` [Compound 258, 3-(isopropoxy)-4,5-(digeranyloxy)-2H-1-benzopyran-2-one] it was 32%. On to `CCCCCCCCCCOc1c(O)c(=O)oc2ccc(OC)cc12` [Compound 276, 3-(hydroxy)-4-(decyloxy)-6-(methoxy)-2H-1-benzopyran-2-one], for which the inhibition in vivo at 10 mg/kg is 34%. The same measure, in the same setting: in the case of `CC(C)=CCC/C(C)=C/COc1cccc2c(OC(C)C)c(O)c(=O)oc12` [Compound 163, 3-hydroxy-4-(isopropoxy)-8-(geranyloxy)-2H-1-benzopyran-2-one] it was 32%. As to `CC(=O)Oc1c(OC(=O)c2ccccc2)c2ccc(O)cc2oc1=O` [Compound 10, 3-(acetoxy)-4-(benzoyloxy)-7-hydroxy-2H-1-benzopyran-2-one], the inhibition in vivo at 10 mg/kg turned out to be 30%. With `COc1ccc2c(OC(=O)c3ccccc3)c(OC/C=C(\C)CCC=C(C)C)c(=O)oc2c1` [Compound 39, 3-(geranyloxy)-4-(benzoyloxy)-7-(methoxy)-2H-1-benzopyran-2-one], the inhibition in vivo at 10 mg/kg worked out at 30%.

Consider `COc1c(OC)c2ccc(O)cc2oc1=O` [Compound 17, 3,4-(dimethoxy)-7-hydroxy-2H-1-benzopyran-2-one], for which the inhibition in vivo at 10 mg/kg was 31%. In the case of `CCCCCCCCCCOc1cccc2c(OC/C=C(\C)CCC=C(C)C)c(O)c(=O)oc12` [Compound 152, 3-hydroxy-4-(geranyloxy)-8-(decyloxy)-2H-1-benzopyran-2-one], the inhibition in vivo at 10 mg/kg was 31%.

As for `CCCCCCCCCCOc1c(OC)c2cccc(OC)c2oc1=O` [Compound 117, 3-(decyloxy)-4,8-(dimethoxy)-2H-1-benzopyran-2-one], the inhibition in vivo at 10 mg/kg came to 32%. Take `COc1ccc2c(OC(=O)c3ccccc3)c(OC)c(=O)oc2c1` [Compound 30, 3,7-(dimethoxy)-4-(benzoyloxy)-2H-1-benzopyran-2-one]: the inhibition in vivo at 10 mg/kg was determined as 31%.

As for `CCCCCCCCCCOc1cccc2oc(=O)c(OC/C=C(\C)CCC=C(C)C)c(OC)c12` [Compound 241, 3-(geranyloxy)-4-(methoxy)-5-(decyloxy)-2H-1-benzopyran-2-one], the inhibition in vivo at 10 mg/kg is 32%.

As to `COc1ccc2c(OC/C=C(\C)CCC=C(C)C)c(OC)c(=O)oc2c1` [Compound 42, 3,7-(dimethoxy)-4-(geranyloxy)-2H-1-benzopyran-2-one], the inhibition in vivo at 10 mg/kg is 33%.

Turning to `CCCCCCCCCCOc1c(OC(=O)c2ccccc2)c2c(O)cccc2oc1=O` [Compound 186, 3-(decyloxy)-4-(benzoyloxy)-5-hydroxy-2H-1-benzopyran-2-one], the inhibition in vivo at 10 mg/kg was determined as 32%. The same measure, in the same setting: to `CC(C)=CCC/C(C)=C/COc1c(OC/C=C(\C)CCC=C(C)C)c2ccc(O)cc2oc1=O` [Compound 26, 3,4-(digeranyloxy)-7-hydroxy-2H-1-benzopyran-2-one] belongs 30%. Regarding `COc1ccc2c(OC/C=C(\C)CCC=C(C)C)c(OC/C=C(\C)CCC=C(C)C)c(=O)oc2c1` [Compound 43, 3,4-(digeranyloxy)-7-(methoxy)-2H-1-benzopyran-2-one], the inhibition in vivo at 10 mg/kg amounted to 30%. For the compound `CC(=O)Oc1ccc2c(OC(C)=O)c(OC/C=C(\C)CCC=C(C)C)c(=O)oc2c1` [Compound 22, 3-(geranyloxy)-4,7-(diacetoxy)-2H-1-benzopyran-2-one], the “Allergic reaction inhibitory index (%)” value is 31%. Take `CC(=O)Oc1c(OC(=O)c2ccccc2)c(=O)oc2c(OC/C=C(\C)CCC=C(C)C)cccc12` [Compound 161, 3-(benzoyloxy)-4-(acetoxy)-8-(geranyloxy)-2H-1-benzopyran-2-one]: the inhibition in vivo at 10 mg/kg was 31%. Same read-out and setting: in the case of `CCCCCCCCCCOc1cccc2oc(=O)c(OC)c(OC(=O)c3ccccc3)c12` [Compound 236, 3-(methoxy)-4-(benzoyloxy)-5-(decyloxy)-2H-1-benzopyran-2-one] it was 31%. Turning to `CC(C)=CCC/C(C)=C/COc1c(OC(=O)c2ccccc2)c(=O)oc2c(OC/C=C(\C)CCC=C(C)C)cccc12` [Compound 170, 3-(benzoyloxy)-4,8-(digeranyloxy)-2H-1-benzopyran-2-one], the inhibition in vivo at 10 mg/kg worked out at 31%. The same measure, in the same setting: in the case of `CCCCOc1cccc2c(O)c(O)c(=O)oc12` [Compound 128, 3,4-(dihydroxy)-8-(butyloxy)-2H-1-benzopyran-2-one] it was 40%; in that of `CCCCCCCCCCOc1ccc2c(OC(C)C)c(O)c(=O)oc2c1` [Compound 63, 3-hydroxy-4-(isopropoxy)-7-(decyloxy)-2H-1-benzopyran-2-one], 37%; in that of `CC(=O)Oc1c(OC/C=C(\C)CCC=C(C)C)c(=O)oc2c(O)cccc12` [Compound 104, 3-(geranyloxy)-4-(acetoxy)-8-hydroxy-2H-1-benzopyran-2-one], 32%. On the same count and under the same terms, to `CC(=O)Oc1c(OC/C=C(\C)CCC=C(C)C)c(=O)oc2c(OC(C)=O)cccc12` [Compound 105, 3-(geranyloxy)-4,8-(diacetoxy)-2H-1-benzopyran-2-one] belongs 30%; to `COc1cccc2oc(=O)c(OC(=O)c3ccccc3)c(O)c12` [Compound 194, 3-(benzoyloxy)-4-hydroxy-5-(methoxy)-2H-1-benzopyran-2-one], 46%; to `CC(C)=CCC/C(C)=C/COc1c(OC/C=C(\C)CCC=C(C)C)c2ccc(OC(C)C)cc2oc1=O` [Compound 57, 3,4-(digeranyloxy)-7-(isopropoxy)-2H-1-benzopyran-2-one], 30%.

On to `CC(C)=CCC/C(C)=C/COc1ccc2c(O)c(O)c(=O)oc2c1` [Compound 75, 3,4-(hydroxy)-7-(geranyloxy)-2H-1-benzopyran-2-one], for which the inhibition in vivo at 10 mg/kg was 45%. Same read-out and setting: in the case of `COc1c(O)c2cc(O)ccc2oc1=O` [Compound 265, 3-(methoxy)-4,6-(dihydroxy)-2H-1-benzopyran-2-one] it was 37%; in that of `CC(=O)Oc1c(OC/C=C(\C)CCC=C(C)C)c(=O)oc2cccc(O)c12` [Compound 189, 3-(geranyloxy)-4-(acetoxy)-5-hydroxy-2H-1-benzopyran-2-one], 30%.
